Read-outs that look alike come from different tables or passages of the source. A value given as a limit tells only on which side of the number the result lay.

The term EC50 denotes the concentration at which the effect is half-maximal.

The experiment concerns HBV. In words: HepAD38 antiviral assay: reduction of viral product accumulation (virion DNA by qPCR, HBsAg or HBeAg by ELISA). Conditions: Hepatitis B virus. In kind it is cell-based, hepatitis B virus. The method, boiled down: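 Tetracycline-free HepAD38 cells exposed to compound (DMSO stock diluted 1:200) for 5 days, or 8 days with media and compound refreshed on d2 and d5. Virion DNA quantified by qPCR after lysis; HBsAg or HBeAg measured by ELISA on diluted samples.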
On the technique in general: Quantitative PCR measures a nucleic acid by following its amplification.

The mark [1] stands for this setting: 120 h, HepAD38 cells, five days after compound addition, 50% reduction of viral product vs no drug controls, read-out: HepAD38 EC50.

In the case of `O=C(Nc1ccc(F)c(F)c1)c1ccc(Cl)c(S(=O)(=O)CC2CCC(O)(C(O)CO)CC2)c1` (stereo not drawn) [Example 199], under setting [1], the EC50 was greater than 0.2 µM.

Consider `O=C(Nc1cc(F)c(F)c(F)c1)c1ccc(Cl)c(S(=O)(=O)[C@H]2CC3CCC(C2)[C@]3(O)[C@H](O)[C@@H](O)CO)c1` [Example 42], for which, under setting [1], the EC50 is less than 0.104 µM. With `COC(=O)NCCC(=O)N1C2CCC1CC(S(=O)(=O)c1cc(C(=O)Nc3cc(F)c(F)c(F)c3)ccc1Cl)C2` (stereo not drawn) [Example 147], the 50% effective concentration (EC50) under setting [1] was less than 0.104 µM.

On to `O=C(Nc1cc(F)c(F)c(F)c1)c1ccc(Cl)c(S(=O)(=O)[C@@H]2CC3CC[C@@H](C2)[C@@]3(O)CNC(=O)[C@@H]2C[C@@H](O)[C@@H](O)C2)c1` [Example 24], for which the EC50 under setting [1] is greater than 0.2 µM. Take `O=C(Nc1cc(F)c(F)c(F)c1)c1ccc(Cl)c(S(=O)(=O)C2CC3CCC(C2)C3C(O)C(O)CO)c1` (stereo not drawn) [Example 20]: the concentration giving a half-maximal response (EC50) under setting [1] is less than 0.104 µM.

Consider `O=C(Nc1cc(F)c(F)c(F)c1)c1ccc(Cl)c(S(=O)(=O)[C@@H]2CC3CC[C@@H](C2)N3C[C@H](O)CO)c1` [Example 153], for which, for the setting “HePAD38, 120 h, read-out: HepAD38 EC50 (μM)”, the 50% effective concentration (EC50) was 0.1 to 0.2 µM. Consider `O=C1CC[C@H](C(=O)NC[C@@]2(O)C3CC[C@H]2C[C@H](S(=O)(=O)c2cc(C(=O)Nc4cc(F)c(F)c(F)c4)ccc2Cl)C3)N1` [Example 128], for which the concentration for a half-maximal effect (EC50) under setting [1] was greater than 0.2 µM. `COC(=O)NCCC(=O)NC[C@@]1(O)C2CC[C@H]1C[C@H](S(=O)(=O)c1cc(C(=O)Nc3cc(F)c(F)c(F)c3)ccc1Cl)C2` [Example 80]: the EC50 under setting [1] was less than 0.104 µM. Still for that read-out and setting: under `COC[C@]1(O)C2CCC1C[C@@H](S(=O)(=O)c1cc(C(=O)Nc3cc(F)c(F)c(F)c3)ccc1Cl)C2` [Example 123] stands less than 0.104 µM; under `COC(=O)N[C@H](C(=O)NC[C@]1(O)C2CCC1C[C@@H](S(=O)(=O)c1cc(C(=O)Nc3cc(F)c(F)c(F)c3)ccc1Cl)C2)C(C)C` [Example 50], less than 0.104 µM; under `CC(C)(C1CCC2(CC1)OCCO2)S(=O)(=O)c1cc(C(=O)Nc2ccc(F)c(F)c2)ccc1Cl` [Example 231], greater than 0.2 µM. For `O=C(Nc1cc(F)c(F)c(F)c1)c1ccc(Cl)c(S(=O)(=O)[C@H]2CC3CCC(C2)[C@]3(O)CO[C@@H]2C[C@@H](O)[C@@H](O)C2)c1` [Example 35], the 50% effective concentration (EC50) under setting [1] is less than 0.104 µM. With `O=C(Nc1cc(F)c(F)c(F)c1)c1ccc(Cl)c(S(=O)(=O)[C@H]2CC3CCC(C2)[C@]3(O)CC(=O)N2CC3(COC3)C2)c1` [Example 94], the concentration giving a half-maximal response (EC50) under setting [1] was less than 0.104 µM. The same measure, in the same setting: for `COC(=O)[C@H](C)NC(=O)C1CC(S(=O)(=O)c2cc(C(=O)Nc3ccc(F)c(F)c3)ccc2Cl)C1` (stereo partly drawn) [Example 255] the value was greater than 0.2 µM; for `COC(=O)CNC(=O)C[C@]1(O)C2CCC1C[C@@H](S(=O)(=O)c1cc(C(=O)Nc3cc(F)c(F)c(F)c3)ccc1Cl)C2` [Example 119], greater than 0.2 µM. With `COC(=O)N[C@@H](CO)C(=O)NC[C@]1(O)C2CCC1C[C@@H](S(=O)(=O)c1cc(C(=O)Nc3cc(F)c(F)c(F)c3)ccc1Cl)C2` [Example 49], the EC50 under setting [1] is greater than 0.2 µM.

For the compound `O=C(Nc1cc(F)c(F)c(F)c1)c1ccc(Cl)c(S(=O)(=O)[C@H]2CC3CCC(C2)[C@]3(O)CNS(=O)(=O)CC(O)CO)c1` (stereo partly drawn) [Example 40], the EC50 under setting [1] was greater than 0.2 µM. As to `O=C(Nc1ccc(F)c(F)c1)c1ccc(Cl)c(S(=O)(=O)[C@@H]2CC3CC[C@@H](C2)[C@@]3(O)Cn2ccc(=O)[nH]c2=O)c1` [Example 305], under setting [1], the EC50 is less than 0.104 µM.

Turning to `CC(C)N(C)C[C@]1(O)C2CCC1C[C@@H](S(=O)(=O)c1cc(C(=O)Nc3ccc(F)c(F)c3)ccc1Cl)C2` [Example 304], the EC50 under setting [1] was less than 0.104 µM. In the case of `O=C1NC(C(=O)NC[C@]2(O)C3CCC2C[C@@H](S(=O)(=O)c2cc(C(=O)Nc4cc(F)c(F)c(F)c4)ccc2Cl)C3)CO1` (stereo partly drawn) [Example 97], the concentration for a half-maximal effect (EC50) under setting [1] was 0.1 to 0.2 µM. Take `O=C(Nc1ccc(F)c(F)c1)c1ccc(Cl)c(S(=O)(=O)C2CC(C(=O)NCCO)C2)c1` (stereo not drawn) [Example 254]: under setting [1], the concentration giving a half-maximal response (EC50) is greater than 0.2 µM. The same measure, in the same setting: under `O=C(Nc1ccc(F)c(F)c1)c1ccc(Cl)c(S(=O)(=O)[C@H]2CC3CCC(C2)[C@]3(O)C(=O)O)c1` [Example 205] stands greater than 0.2 µM; under `O=C(Nc1ccc(F)c(F)c1)c1ccc(Cl)c(S(=O)(=O)[C@H]2CC3CCC(C2)[C@]3(O)CN2CCOC2=O)c1` [Example 306], less than 0.104 µM. In the case of `COC(=O)CCNC(=O)[C@H]1C[C@H](S(=O)(=O)c2cc(C(=O)Nc3ccc(F)c(F)c3)ccc2Cl)C1` [Example 257a], the EC50 under setting [1] is greater than 0.2 µM. As to `CC(C)N(C)[C@H]1C2CCC1C[C@H](S(=O)(=O)c1cc(C(=O)Nc3ccc(F)c(F)c3)ccc1Cl)C2` [Example 307], the EC50 under setting [1] was 0.1 to 0.2 µM.

With `Cc1cccc([C@@H](O)[C@@]2(O)C3CC[C@H]2C[C@H](S(=O)(=O)c2cc(C(=O)Nc4ccc(F)c(F)c4)ccc2Cl)C3)n1` [Example 294b], the half-maximal effective concentration (EC50) under setting [1] was less than 0.104 µM. As for `C[C@]1(O)C2CCC1C[C@@H](S(=O)(=O)c1cc(C(=O)Nc3ccc(F)c(F)c3)c(-c3ccccc3)cc1Cl)C2` [Example 101], the EC50 under setting [1] is greater than 0.2 µM. With `COC(=O)N1CC[C@@H](O)[C@H]1C(=O)NC[C@]1(O)C2CCC1C[C@@H](S(=O)(=O)c1cc(C(=O)Nc3cc(F)c(F)c(F)c3)ccc1Cl)C2` [Example 78], under setting [1], the concentration giving a half-maximal response (EC50) is greater than 0.2 µM.

`COC(=O)N1CC[C@H](O)[C@H]1C(=O)NC[C@@]1(O)C2CC[C@H]1C[C@H](S(=O)(=O)c1cc(C(=O)Nc3cc(F)c(F)c(F)c3)ccc1Cl)C2` [Example 79]: under setting [1], the EC50 was greater than 0.2 µM. As for `O=C(Nc1ccc(F)c(F)c1)c1ccc(Cl)c(S(=O)(=O)[C@H]2CC3CCC(C2)[C@]3(O)C(O)Cc2ncc[nH]2)c1` (stereo partly drawn) [Example 316], the EC50 under setting [1] was greater than 0.2 µM. With `O=C(CCCO)NC[C@]1(O)C2CCC1C[C@@H](S(=O)(=O)c1cc(C(=O)Nc3cc(F)c(F)c(F)c3)ccc1Cl)C2` [Example 2], the concentration for a half-maximal effect (EC50) under setting [1] was in the range of 0.1 to 0.2 µM.

`COC(=O)N1CC(=O)C[C@H]1C(=O)NC[C@]1(O)C2CCC1C[C@@H](S(=O)(=O)c1cc(C(=O)Nc3cc(F)c(F)c(F)c3)ccc1Cl)C2` [Example 74]: the EC50 under setting [1] lay in the range of 0.1 to 0.2 µM.

For the compound `O=C(Nc1cc(F)c(F)c(F)c1)c1ccc(Cl)c(S(=O)(=O)[C@@H]2CC3CC[C@@H](C2)[C@@]3(O)CNC(=O)C2CC2(O)CO)c1` (stereo partly drawn) [Example 67], under setting [1], the EC50 is greater than 0.2 µM. Consider `O=C(Nc1ccc(F)c(F)c1)c1ccc(Cl)c(S(=O)(=O)[C@@H]2CC3C[C@H](O)C(C2)[C@@]3(O)CO)c1` (stereo partly drawn) [Example 327], for which the EC50 under setting [1] lay in the range of 0.1 to 0.2 µM. The same measure, in the same setting: for `O=C(CC1(O)CC(S(=O)(=O)c2cc(C(=O)Nc3ccc(F)c(F)c3)ccc2Cl)C1)NCCO` (stereo not drawn) [Example 245] the value was greater than 0.2 µM. For `C[C@H](O)[C@@H](O)[C@]1(O)C2CCC1C[C@@H](S(=O)(=O)c1cc(C(=O)Nc3ccc(F)c(F)c3)n(C)c1)C2` [Example 341], the concentration giving a half-maximal response (EC50) under setting [1] was greater than 0.2 µM. Take `CC(=O)C[C@]1(O)CC[C@H](CS(=O)(=O)c2cc(C(=O)Nc3ccc(F)c(F)c3)ccc2Cl)CC1` [Example 222]: the EC50 under setting [1] was 0.1 to 0.2 µM.

On to `O=C(O)CCNC(=O)C[C@]1(O)C2CCC1C[C@@H](S(=O)(=O)c1cc(C(=O)Nc3cc(F)c(F)c(F)c3)ccc1Cl)C2` [Example 140], for which the EC50 under setting [1] is greater than 0.2 µM. `C[C@]1(O)C2CCC1C[C@@H](S(=O)(=O)c1cc(C(=O)Nc3ccc(F)c(F)c3)c(Br)cc1Cl)C2` [Example 100]: the EC50 under setting [1] was less than 0.104 µM.

Regarding `CC(C)(O)C(O)CNC(=O)[C@@]1(O)C2CC[C@H]1C[C@H](S(=O)(=O)c1cc(C(=O)Nc3cc(F)c(F)c(F)c3)ccc1Cl)C2` (stereo partly drawn) [Example 148], under setting [1], the 50% effective concentration (EC50) was in the range of 0.1 to 0.2 µM. Consider `O=C(Nc1ccc(F)c(F)c1)c1ccc(Cl)c(S(=O)(=O)[C@H]2C[C@H](CO)C2)c1` [Example 252a], for which the half-maximal effective concentration (EC50) under setting [1] is greater than 0.2 µM.

As for `COC(=O)[C@H]1C[C@H](S(=O)(=O)c2cc(C(=O)Nc3ccc(F)c(F)c3)ccc2Cl)C1` [Example 250a], the half-maximal effective concentration (EC50) under setting [1] is greater than 0.2 µM.

Regarding `CC(C)([C@H]1CC[C@@H](O)CC1)S(=O)(=O)c1cc(C(=O)Nc2ccc(F)c(F)c2)ccc1Cl` [Example 235], under setting [1], the half-maximal effective concentration (EC50) was greater than 0.2 µM. For the compound `O=C(Nc1ccc(F)c(F)c1)c1ccc(Cl)c(S(=O)(=O)[C@@H]2CC3CC[C@@H](C2)[C@@]3(O)C(O)c2cccc(C(F)F)n2)c1` (stereo partly drawn) [Example 350], under setting [1], the EC50 is less than 0.104 µM.

Turning to `COCCOCCOC[C@]1(O)C2CCC1C[C@@H](S(=O)(=O)c1cc(C(=O)Nc3cc(F)c(F)c(F)c3)ccc1Cl)C2` [Example 99], under setting [1], the 50% effective concentration (EC50) was less than 0.104 µM. Still for that read-out and setting: under `COC(=O)N1CCCC1C(=O)NC[C@@]1(O)C2CC[C@H]1C[C@H](S(=O)(=O)c1cc(C(=O)Nc3cc(F)c(F)c(F)c3)ccc1Cl)C2` (stereo partly drawn) [Example 23] stands less than 0.104 µM; under `O=C(Nc1ccc(F)c(F)c1)c1ccc(Cl)c(S(=O)(=O)[C@H]2CC3CCC(C2)[C@]3(O)[C@H](O)CO)c1` (single isomer, unassigned) [Example 174], less than 0.104 µM.

With `CCCCc1cc(Cl)c(S(=O)(=O)[C@H]2CC3CCC(C2)[C@@]3(C)O)cc1C(=O)Nc1ccc(F)c(F)c1` [Example 103], the EC50 under setting [1] was less than 0.104 µM. On to `O=C(Nc1ccc(F)c(F)c1)c1ccc(Cl)c(S(=O)(=O)[C@H]2C[C@@H](CO)C2)c1` [Example 252b], for which the EC50 under setting [1] is greater than 0.2 µM.

With `CC(C)(C)OC(=O)N1CC[C@@H](O)[C@H]1C(=O)NC[C@@]1(O)C2CC[C@H]1C[C@H](S(=O)(=O)c1cc(C(=O)Nc3cc(F)c(F)c(F)c3)ccc1Cl)C2` [Example 76], under setting [1], the EC50 was less than 0.104 µM. The same measure, in the same setting: under `O=C(Nc1cc(F)c(F)c(F)c1)c1ccc(Cl)c(S(=O)(=O)[C@H]2CC3CCC(C2)[C@]3(O)COCC(O)CO)c1` (stereo partly drawn) [Example 63] stands less than 0.104 µM; under `O=C(Nc1ccc(F)c(F)c1)c1ccc(Cl)c(S(=O)(=O)[C@H]2CC3CCC(C2)[C@]3(O)C(O)C(O)c2cccnc2)c1` (stereo partly drawn) [Example 321], less than 0.104 µM; under `C[C@@]1(O)C2CC[C@H]1C[C@H](S(=O)(=O)c1cc(C(=O)Nc3ccc(F)c(F)c3)c(Cc3ccccc3)cc1Cl)C2` [Example 160], greater than 0.2 µM. Take `CS(=O)(=O)NCC(O)[C@]1(O)C2CCC1C[C@@H](S(=O)(=O)c1cc(C(=O)Nc3cc(F)c(F)c(F)c3)ccc1Cl)C2` (stereo partly drawn) [Example 26]: the concentration giving a half-maximal response (EC50) under setting [1] was less than 0.104 µM.

Source of the values: patent US11596611B2, “Hepatitis B antiviral agents” (ENANTA PHARMACEUTICALS, INC., priority 2017, dated 2023).
